Reference: ChEMBL document CHEMBL1201862, “PubChem BioAssay data set” (2004)
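Each compound was tested at five concentrations against cells in 96-well plates for 48 hours. At the GI50, growth is halved.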 Calls of active or inactive are those of the source. Rule as the data show it: active = GI50 up to about 1.1 µM and inactive = higher.

Tests used:
Assay in all cases: inhibition of tumour cell growth, NCI panel, 48 h
A498 = system: A498
DLD-1 = system: DLD-1
DMS-114 = system: DMS-114
DMS-273 = system: DMS-273
KM-20L2 = system: KM-20L2
KM12 = system: KM12
NCI-H23 = system: NCI-H23
OVCAR-8 = system: OVCAR-8
SF-268 = system: SF-268
SNB-78 = system: SNB-78
SR = system: SR
TK-10 = system: TK-10
XF498 = system: XF498
786-0 = system: 786-0
M19-MEL = system: M19-MEL
SK-OV-3 = system: SK-OV-3

Measured: GI50

CCOC(=O)/C=C(\C)c1ccc(C)cc1C
inactive: A498 > 100 µM | DLD-1 15.7 µM | DMS-114 > 100 µM | DMS-273 > 100 µM | KM-20L2 > 100 µM | KM12 72.3 µM | NCI-H23 45.4 µM | OVCAR-8 > 100 µM | SF-268 > 100 µM | SNB-78 38.1 µM | SR 4.46 µM | TK-10 33.8 µM | XF498 23.4 µM

Cn1c(=O)nc2n(-c3ccc(Cl)c(C(F)(F)F)c3)c3ccccc3nc-2c1=O
inactive: 786-0 57 µM | A498 > 79.3 µM | DLD-1 20.1 µM | DMS-114 16.7 µM | DMS-273 32.1 µM | KM-20L2 25.1 µM | KM12 32.9 µM | M19-MEL 13.4 µM | NCI-H23 29.6 µM | OVCAR-8 24.9 µM | SF-268 35.6 µM | SK-OV-3 > 100 µM | SNB-78 53.6 µM | TK-10 > 79.6 µM | XF498 37.2 µM

Cc1c(-c2cc3n(n2)C(c2cccs2)C(C#N)=C(c2ccccc2)N3)c(=O)n(-c2ccccc2)n1C (stereo unspecified)
inactive: A498 82.8 µM | DLD-1 > 100 µM | DMS-114 77.3 µM | DMS-273 > 91.6 µM | KM-20L2 24.9 µM | KM12 94.2 µM | M19-MEL > 100 µM | NCI-H23 > 89.5 µM | OVCAR-8 > 100 µM | SF-268 > 100 µM | SK-OV-3 > 100 µM | SNB-78 > 100 µM | XF498 > 79.4 µM

CC1=NN(c2ccccc2)C(=O)C1=C1SCCCS1
inactive: 786-0 35.5 µM | A498 45.7 µM | DLD-1 21.5 µM | DMS-114 20.8 µM | DMS-273 32.7 µM | KM-20L2 31.4 µM | KM12 21.9 µM | M19-MEL 32.1 µM | NCI-H23 29.2 µM | OVCAR-8 31.7 µM | SF-268 44 µM | SK-OV-3 46.3 µM | SNB-78 66.2 µM | SR 14.3 µM | TK-10 23.8 µM | XF498 16.6 µM

O=c1[nH]c2ccc([N+](=O)[O-])cc2nc1/C(=N/Nc1ccccc1)C(O)c1ccco1 (stereo unspecified)
inactive: 786-0 > 100 µM | DLD-1 > 100 µM | DMS-114 18.9 µM | DMS-273 42.4 µM | KM-20L2 41.1 µM | KM12 33.6 µM | M19-MEL 85.9 µM | NCI-H23 65.3 µM | OVCAR-8 > 100 µM | SF-268 71.6 µM | SK-OV-3 > 100 µM | SNB-78 > 100 µM | SR 66.2 µM | TK-10 > 100 µM | XF498 > 100 µM

C=CNC(=S)n1nc(-c2ccccc2NC(=O)C(F)(F)F)c(=O)n(C(=S)NC=C)c1=S
inactive: DLD-1 16.7 µM | DMS-114 12.3 µM | DMS-273 26.8 µM | KM12 29.3 µM | M19-MEL 31.8 µM | NCI-H23 26.7 µM | OVCAR-8 33 µM | SF-268 15.4 µM | SK-OV-3 30.3 µM | SNB-78 51.1 µM | SR 16.4 µM | TK-10 > 100 µM | XF498 30.2 µM

Cc1c2cc[n+](C)cc2c(COC2OC(CO)C(O)C2O)c2c3ccccc3n(C)c12 (stereo unspecified)
inactive: A498 > 100 µM | DLD-1 > 100 µM | DMS-114 46.3 µM | DMS-273 > 89.9 µM | KM-20L2 31.6 µM | KM12 > 100 µM | M19-MEL 65.5 µM | NCI-H23 58.3 µM | OVCAR-8 99.1 µM | SF-268 15.8 µM | SK-OV-3 > 88.7 µM | SNB-78 83.9 µM | XF498 50.7 µM

CNC(=O)OCc1nc(SC)n(C)c1CO
inactive: A498 > 100 µM | DLD-1 > 100 µM | DMS-114 > 100 µM | DMS-273 > 100 µM | KM-20L2 > 100 µM | KM12 > 100 µM | M19-MEL > 100 µM | NCI-H23 > 100 µM | OVCAR-8 > 100 µM | SF-268 > 100 µM | SK-OV-3 > 100 µM | SNB-78 > 100 µM | XF498 > 100 µM
